Test results as given in ChEMBL document CHEMBL4507302, “Data for DCP probe TP-020” (2021).

How the values were obtained:
[1] = test system: Mast/stem cell growth factor receptor Kit (Homo sapiens), P10721 [V559D]; conditions: Compound concentration 1000.0 nM
[2] = target: Casein kinase II subunit alpha' (Homo sapiens) (UniProt P19784); conditions: Compound concentration 1000.0 nM
[3] = test system: Receptor-type tyrosine-protein kinase FLT3 (Homo sapiens), P36888 [UNDEFINED MUTATION]; conditions: Compound concentration 1000.0 nM
Chain of Receptor-type tyrosine-protein kinase FLT3 (Homo sapiens), P36888 [UNDEFINED MUTATION] (P36888 whole entry, looked up, change not shown): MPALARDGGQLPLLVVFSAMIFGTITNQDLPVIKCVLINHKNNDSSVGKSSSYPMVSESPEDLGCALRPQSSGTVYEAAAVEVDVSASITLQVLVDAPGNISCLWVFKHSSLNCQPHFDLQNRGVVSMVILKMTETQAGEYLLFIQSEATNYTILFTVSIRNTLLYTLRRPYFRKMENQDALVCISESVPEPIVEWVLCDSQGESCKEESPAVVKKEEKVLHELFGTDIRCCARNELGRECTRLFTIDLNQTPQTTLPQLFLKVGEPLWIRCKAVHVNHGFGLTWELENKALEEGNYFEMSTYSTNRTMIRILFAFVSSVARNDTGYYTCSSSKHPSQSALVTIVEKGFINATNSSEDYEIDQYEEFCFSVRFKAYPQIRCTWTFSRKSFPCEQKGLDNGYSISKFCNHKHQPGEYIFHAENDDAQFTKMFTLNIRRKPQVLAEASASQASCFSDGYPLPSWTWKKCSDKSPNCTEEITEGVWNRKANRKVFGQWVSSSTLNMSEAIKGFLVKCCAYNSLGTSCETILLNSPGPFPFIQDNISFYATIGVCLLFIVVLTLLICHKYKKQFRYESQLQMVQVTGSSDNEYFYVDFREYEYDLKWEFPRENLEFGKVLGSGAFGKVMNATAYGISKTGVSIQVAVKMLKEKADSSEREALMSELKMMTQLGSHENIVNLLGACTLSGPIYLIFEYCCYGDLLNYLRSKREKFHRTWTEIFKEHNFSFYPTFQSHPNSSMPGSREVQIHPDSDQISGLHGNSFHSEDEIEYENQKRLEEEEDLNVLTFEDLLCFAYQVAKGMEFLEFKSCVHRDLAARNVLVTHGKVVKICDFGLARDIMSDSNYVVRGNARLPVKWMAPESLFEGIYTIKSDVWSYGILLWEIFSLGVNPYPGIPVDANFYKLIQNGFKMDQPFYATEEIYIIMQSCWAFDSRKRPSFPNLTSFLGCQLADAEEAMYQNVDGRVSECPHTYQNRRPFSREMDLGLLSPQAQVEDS

[4] = target: Dual specificity protein kinase CLK3 (Homo sapiens) (UniProt P49761); conditions: Compound concentration 1000.0 nM
[5] = target: STE20-like serine/threonine-protein kinase (Homo sapiens) (UniProt Q9H2G2); conditions: Compound concentration 1000.0 nM
Rattus norvegicus = species on record: Rattus norvegicus; conditions: Compound concentration 10.0 uM
[6] = target: Inhibitor of nuclear factor kappa-B kinase subunit epsilon (Homo sapiens) (UniProt Q14164); conditions: Compound concentration 1000.0 nM
Chain of Inhibitor of nuclear factor kappa-B kinase subunit epsilon (Homo sapiens) (Q14164 whole entry): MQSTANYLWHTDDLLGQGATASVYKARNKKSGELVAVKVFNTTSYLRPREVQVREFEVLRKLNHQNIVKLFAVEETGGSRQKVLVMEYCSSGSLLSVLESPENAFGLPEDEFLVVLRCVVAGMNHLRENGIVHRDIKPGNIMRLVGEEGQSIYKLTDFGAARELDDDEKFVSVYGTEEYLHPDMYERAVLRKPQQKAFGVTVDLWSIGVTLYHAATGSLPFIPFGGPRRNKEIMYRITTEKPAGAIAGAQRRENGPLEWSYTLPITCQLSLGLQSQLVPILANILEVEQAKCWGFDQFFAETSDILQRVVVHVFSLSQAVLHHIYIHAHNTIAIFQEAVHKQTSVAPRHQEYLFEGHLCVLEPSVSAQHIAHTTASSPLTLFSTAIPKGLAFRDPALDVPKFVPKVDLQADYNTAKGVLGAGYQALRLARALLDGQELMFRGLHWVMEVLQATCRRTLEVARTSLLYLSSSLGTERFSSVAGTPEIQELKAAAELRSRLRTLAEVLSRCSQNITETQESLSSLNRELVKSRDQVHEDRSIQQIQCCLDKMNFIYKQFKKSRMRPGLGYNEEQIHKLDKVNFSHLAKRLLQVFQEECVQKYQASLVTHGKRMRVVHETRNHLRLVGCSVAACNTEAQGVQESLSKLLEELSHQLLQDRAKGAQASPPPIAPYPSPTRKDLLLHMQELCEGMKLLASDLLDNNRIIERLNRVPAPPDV

[7] = target: Ribosomal protein S6 kinase alpha-5 (Homo sapiens) (UniProt O75582); conditions: Compound concentration 1000.0 nM
[8] = test system: Epidermal growth factor receptor (Homo sapiens), P00533 [UNDEFINED MUTATION]; conditions: Compound concentration 1000.0 nM
[9] = target: Ribosomal protein S6 kinase beta-1 (Homo sapiens) (UniProt P23443); conditions: Compound concentration 1000.0 nM
[10] = target: TGF-beta receptor type-1 (Homo sapiens) (UniProt P36897); conditions: Compound concentration 1000.0 nM
[11] = target: Vascular endothelial growth factor receptor 1 (Homo sapiens) (UniProt P17948); conditions: Compound concentration 1000.0 nM
[12] = target: BDNF/NT-3 growth factors receptor (Homo sapiens) (UniProt Q16620); conditions: Compound concentration 1000.0 nM
[13] = target: Serine/threonine-protein kinase DCLK3 (Homo sapiens) (UniProt Q9C098); conditions: Compound concentration 1000.0 nM
[14] = target: Uncharacterized serine/threonine-protein kinase SBK3 (Homo sapiens) (UniProt P0C264); conditions: Compound concentration 1000.0 nM
[15] = target: Receptor tyrosine-protein kinase erbB-3 (Homo sapiens) (UniProt P21860); conditions: Compound concentration 1000.0 nM
[16] = target: Serine/threonine-protein kinase MARK1 (Homo sapiens) (UniProt Q9P0L2); conditions: Compound concentration 1000.0 nM
[17] = target: Dual specificity protein kinase CLK4 (Homo sapiens) (UniProt Q9HAZ1); conditions: Compound concentration 1000.0 nM
Chain of Dual specificity protein kinase CLK4 (Homo sapiens) (Q9HAZ1 whole entry, looked up): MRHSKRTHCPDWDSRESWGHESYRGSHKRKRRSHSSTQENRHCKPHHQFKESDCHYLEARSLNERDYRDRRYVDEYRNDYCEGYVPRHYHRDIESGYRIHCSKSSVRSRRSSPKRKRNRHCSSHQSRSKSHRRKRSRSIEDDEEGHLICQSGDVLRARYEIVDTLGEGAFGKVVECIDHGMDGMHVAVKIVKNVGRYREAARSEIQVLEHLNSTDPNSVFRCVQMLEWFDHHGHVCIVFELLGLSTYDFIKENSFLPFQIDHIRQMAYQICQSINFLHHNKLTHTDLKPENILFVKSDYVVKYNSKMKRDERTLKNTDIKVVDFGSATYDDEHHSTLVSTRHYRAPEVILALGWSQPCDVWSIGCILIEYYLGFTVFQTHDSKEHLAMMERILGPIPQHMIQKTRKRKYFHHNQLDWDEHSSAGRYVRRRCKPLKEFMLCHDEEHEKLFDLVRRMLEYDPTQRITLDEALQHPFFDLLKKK

[18] = target: Serine/threonine-protein kinase VRK2 (Homo sapiens) (UniProt Q86Y07); conditions: Compound concentration 1000.0 nM
[19] = target: Tyrosine-protein kinase JAK2 (Homo sapiens) (UniProt O60674); conditions: Compound concentration 1000.0 nM
[20] = target: Rhodopsin kinase GRK7 (Homo sapiens) (UniProt Q8WTQ7); conditions: Compound concentration 1000.0 nM
[21] = target: Serine/threonine-protein kinase Sgk2 (Homo sapiens) (UniProt Q9HBY8); conditions: Compound concentration 1000.0 nM
[22] = test system: Phosphatidylinositol 4,5-bisphosphate 3-kinase catalytic subunit alpha isoform (Homo sapiens), P42336 [M1043I]; conditions: Compound concentration 1000.0 nM
Chain of Phosphatidylinositol 4,5-bisphosphate 3-kinase catalytic subunit alpha isoform (Homo sapiens), P42336 [M1043I] (P42336 whole entry M1043I, canonical isoform): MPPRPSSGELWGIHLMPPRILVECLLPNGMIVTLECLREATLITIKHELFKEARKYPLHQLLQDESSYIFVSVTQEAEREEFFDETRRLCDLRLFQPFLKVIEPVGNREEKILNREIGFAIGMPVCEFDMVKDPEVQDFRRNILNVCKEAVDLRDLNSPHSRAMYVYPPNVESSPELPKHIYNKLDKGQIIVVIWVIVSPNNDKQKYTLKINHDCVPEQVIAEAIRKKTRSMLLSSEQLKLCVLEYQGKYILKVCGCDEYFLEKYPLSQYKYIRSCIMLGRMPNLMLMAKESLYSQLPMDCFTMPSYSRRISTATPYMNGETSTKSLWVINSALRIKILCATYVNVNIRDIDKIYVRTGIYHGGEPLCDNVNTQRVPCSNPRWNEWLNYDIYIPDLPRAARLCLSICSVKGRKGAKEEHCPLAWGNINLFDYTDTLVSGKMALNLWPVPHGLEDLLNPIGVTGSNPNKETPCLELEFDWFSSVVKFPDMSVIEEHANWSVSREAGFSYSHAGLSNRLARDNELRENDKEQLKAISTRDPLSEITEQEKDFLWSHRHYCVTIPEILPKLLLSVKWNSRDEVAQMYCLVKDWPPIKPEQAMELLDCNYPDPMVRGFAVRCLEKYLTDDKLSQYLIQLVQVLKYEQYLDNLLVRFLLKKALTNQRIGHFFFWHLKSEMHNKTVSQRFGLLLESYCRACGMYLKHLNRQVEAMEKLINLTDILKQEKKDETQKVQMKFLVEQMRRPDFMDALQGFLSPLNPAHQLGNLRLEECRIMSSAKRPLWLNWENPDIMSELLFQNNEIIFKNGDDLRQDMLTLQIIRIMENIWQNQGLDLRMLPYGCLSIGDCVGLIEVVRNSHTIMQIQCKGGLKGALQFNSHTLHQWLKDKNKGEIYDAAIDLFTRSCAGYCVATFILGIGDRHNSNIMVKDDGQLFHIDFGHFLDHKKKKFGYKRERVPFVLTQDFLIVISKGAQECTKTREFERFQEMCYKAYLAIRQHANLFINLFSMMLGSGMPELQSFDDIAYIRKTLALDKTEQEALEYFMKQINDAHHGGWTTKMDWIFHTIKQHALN

[23] = target: Serine/threonine-protein kinase Nek5 (Homo sapiens) (UniProt Q6P3R8); conditions: Compound concentration 1000.0 nM
[24] = target: Tyrosine-protein kinase ABL1 (Homo sapiens) (UniProt P00519); conditions: Compound concentration 1000.0 nM
[25] = target: Ephrin type-B receptor 2 (Homo sapiens) (UniProt P29323); conditions: Compound concentration 1000.0 nM
[26] = target: Mitogen-activated protein kinase 6 (Homo sapiens) (UniProt Q16659); conditions: Compound concentration 1000.0 nM
[27] = test system: Proto-oncogene tyrosine-protein kinase receptor Ret (Homo sapiens), P07949 [V804L]; conditions: Compound concentration 1000.0 nM
[28] = target: Testis-specific serine/threonine-protein kinase 3 (Homo sapiens) (UniProt Q96PN8); conditions: Compound concentration 1000.0 nM
[29] = target: Ephrin type-A receptor 5 (Homo sapiens) (UniProt P54756); conditions: Compound concentration 1000.0 nM
[30] = target: Angiopoietin-1 receptor (Homo sapiens) (UniProt Q02763); conditions: Compound concentration 1000.0 nM
[31] = target: Cyclin-dependent kinase-like 2 (Homo sapiens) (UniProt Q92772); conditions: Compound concentration 1000.0 nM
[32] = target: Dual specificity mitogen-activated protein kinase kinase 2 (Homo sapiens) (UniProt P36507); conditions: Compound concentration 1000.0 nM
[33] = test system: Receptor-type tyrosine-protein kinase FLT3 (Homo sapiens), P36888 [UNDEFINED MUTATION]; conditions: Compound concentration 1000.0 nM; remark: listed apart in the source
[34] = target: MAP/microtubule affinity-regulating kinase 3 (Homo sapiens) (UniProt P27448); conditions: Compound concentration 1000.0 nM
[35] = target: Transient receptor potential cation channel subfamily M member 6 (Homo sapiens) (UniProt Q9BX84); conditions: Compound concentration 1000.0 nM
[36] = target: Serine/threonine-protein kinase 26 (Homo sapiens) (UniProt Q9P289); conditions: Compound concentration 1000.0 nM
[37] = target: Interleukin-1 receptor-associated kinase 3 (Homo sapiens) (UniProt Q9Y616); conditions: Compound concentration 1000.0 nM
[38] = target: Serine/threonine-protein kinase PAK 4 (Homo sapiens) (UniProt O96013); conditions: Compound concentration 1000.0 nM
[39] = target: Serine/threonine-protein kinase 32B (Homo sapiens) (UniProt Q9NY57); conditions: Compound concentration 1000.0 nM
[40] = target: 5'-AMP-activated protein kinase catalytic subunit alpha-1 (Homo sapiens) (UniProt Q13131); conditions: Compound concentration 1000.0 nM
Chain of 5'-AMP-activated protein kinase catalytic subunit alpha-1 (Homo sapiens) (Q13131 whole entry, looked up): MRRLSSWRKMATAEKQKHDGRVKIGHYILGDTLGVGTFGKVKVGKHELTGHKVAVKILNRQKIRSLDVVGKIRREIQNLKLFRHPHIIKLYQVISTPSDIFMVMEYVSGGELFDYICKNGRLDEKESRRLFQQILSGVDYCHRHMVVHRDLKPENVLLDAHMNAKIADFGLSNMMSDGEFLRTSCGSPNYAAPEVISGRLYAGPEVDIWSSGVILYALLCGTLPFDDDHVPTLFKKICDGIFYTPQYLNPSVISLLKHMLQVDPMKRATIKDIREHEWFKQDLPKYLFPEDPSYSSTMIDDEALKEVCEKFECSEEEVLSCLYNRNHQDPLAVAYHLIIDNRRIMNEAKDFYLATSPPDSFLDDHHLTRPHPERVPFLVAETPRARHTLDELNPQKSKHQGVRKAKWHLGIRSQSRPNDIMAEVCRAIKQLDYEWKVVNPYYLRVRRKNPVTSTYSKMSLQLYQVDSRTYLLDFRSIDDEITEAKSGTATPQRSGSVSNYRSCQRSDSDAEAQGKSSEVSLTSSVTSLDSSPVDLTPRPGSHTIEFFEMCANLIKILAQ

[41] = target: 5-hydroxytryptamine receptor 2B (Homo sapiens) (UniProt P41595); conditions: Compound concentration 10.0 uM
Chain of 5-hydroxytryptamine receptor 2B (Homo sapiens) (P41595 whole entry): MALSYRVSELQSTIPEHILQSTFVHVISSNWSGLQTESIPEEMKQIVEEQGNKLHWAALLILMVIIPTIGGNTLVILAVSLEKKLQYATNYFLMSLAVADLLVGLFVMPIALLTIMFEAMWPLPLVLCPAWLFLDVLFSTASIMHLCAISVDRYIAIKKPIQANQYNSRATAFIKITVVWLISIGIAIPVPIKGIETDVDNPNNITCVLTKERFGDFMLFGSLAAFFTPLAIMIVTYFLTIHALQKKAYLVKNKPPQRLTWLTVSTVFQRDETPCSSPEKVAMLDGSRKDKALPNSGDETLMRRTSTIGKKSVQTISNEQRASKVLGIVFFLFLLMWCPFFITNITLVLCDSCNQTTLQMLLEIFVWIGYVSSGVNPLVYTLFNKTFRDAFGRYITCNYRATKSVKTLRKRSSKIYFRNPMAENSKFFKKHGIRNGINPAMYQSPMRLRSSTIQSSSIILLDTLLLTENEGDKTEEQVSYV

[42] = target: Serine/threonine-protein kinase 35 (Homo sapiens) (UniProt Q8TDR2); conditions: Compound concentration 1000.0 nM
Chain of Serine/threonine-protein kinase 35 (Homo sapiens) (Q8TDR2 whole entry): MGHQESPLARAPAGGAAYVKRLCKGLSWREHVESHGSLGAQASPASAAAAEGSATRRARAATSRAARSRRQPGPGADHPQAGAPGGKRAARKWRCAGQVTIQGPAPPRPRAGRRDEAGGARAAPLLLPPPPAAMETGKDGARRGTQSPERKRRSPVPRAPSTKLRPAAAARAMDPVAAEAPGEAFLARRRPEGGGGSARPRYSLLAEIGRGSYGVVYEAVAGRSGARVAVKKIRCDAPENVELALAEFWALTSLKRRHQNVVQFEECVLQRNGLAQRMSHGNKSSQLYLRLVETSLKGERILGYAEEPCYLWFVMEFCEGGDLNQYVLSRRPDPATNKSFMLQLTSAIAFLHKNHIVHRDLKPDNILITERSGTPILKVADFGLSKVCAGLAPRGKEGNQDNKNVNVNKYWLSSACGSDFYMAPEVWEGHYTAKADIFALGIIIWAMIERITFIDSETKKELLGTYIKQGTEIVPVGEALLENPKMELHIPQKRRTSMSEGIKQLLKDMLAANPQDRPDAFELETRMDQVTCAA

[43] = target: Protein kinase C delta type (Homo sapiens) (UniProt Q05655); conditions: Compound concentration 1000.0 nM
[44] = target: Mitogen-activated protein kinase 11 (Homo sapiens) (UniProt Q15759); conditions: Compound concentration 1000.0 nM

Cn1nc(C(F)(F)F)cc1-c1cnc(N2CCc3cc(S(=O)(=O)Nc4c(F)cc(Cl)cc4F)cc(N4CCCC4=O)c32)nc1 [TP-020]
active: residual activity [3] 32% | residual activity [34] 12%
inactive: residual activity [1] 99% | residual activity [2] 84% | residual activity [4] 88% | residual activity [5] 100% | inhibition (Rattus norvegicus) -9.93% | residual activity [6] 94% | residual activity [7] 86% | residual activity [8] 100% | residual activity [9] 78% | residual activity [10] 100% | residual activity [11] 95% | residual activity [12] 75% | residual activity [13] 86% | residual activity [14] 79% | residual activity [15] 93% | residual activity [16] 92% | residual activity [17] 90% | residual activity [18] 61% | residual activity [19] 82% | residual activity [20] 85% | residual activity [21] 100% | residual activity [22] 89% | residual activity [23] 86% | residual activity [24] 95% | residual activity [25] 100% | residual activity [26] 100% | residual activity [27] 100% | residual activity [28] 94% | residual activity [29] 94% | residual activity [30] 99% | residual activity [31] 100% | residual activity [32] 84% | residual activity [33] 82% | residual activity [35] 79% | residual activity [36] 73% | residual activity [37] 100% | residual activity [38] 100% | residual activity [39] 95% | residual activity [40] 98% | inhibition [41] 24.7% | residual activity [42] 100% | residual activity [43] 95% | residual activity [44] 100%

Nc1cnc(N2CCc3cc(S(=O)(=O)Nc4c(F)cc(Cl)cc4F)cc(N4CCCC4=O)c32)nc1
inactive: residual activity [1] 100% | residual activity [2] 98% | residual activity [3] 96% | residual activity [4] 74% | residual activity [5] 100% | inhibition (Rattus norvegicus) -2.65% | residual activity [6] 95% | residual activity [7] 95% | residual activity [8] 71% | residual activity [9] 83% | residual activity [10] 100% | residual activity [11] 93% | residual activity [12] 100% | residual activity [13] 85% | residual activity [14] 100% | residual activity [15] 100% | residual activity [16] 76% | residual activity [17] 89% | residual activity [18] 100% | residual activity [19] 100% | residual activity [20] 99% | residual activity [21] 76% | residual activity [22] 100% | residual activity [23] 100% | residual activity [24] 97% | residual activity [25] 87% | residual activity [26] 100% | residual activity [27] 99% | residual activity [28] 100% | residual activity [29] 100% | residual activity [30] 78% | residual activity [31] 85% | residual activity [32] 92% | residual activity [33] 100% | residual activity [34] 100% | residual activity [35] 93% | residual activity [36] 83% | residual activity [37] 89% | residual activity [38] 89% | residual activity [39] 74% | residual activity [40] 100% | inhibition [41] 12.9% | residual activity [42] 100% | residual activity [43] 86% | residual activity [44] 100%
